According to US11357752B2, “Carolacton and derivatives thereof for use in the treatment of cell proliferation disorders” (Helmholtz-Zentrum für Infektionsforschung GmbH, priority 2017, dated 2022):

Assays:
L-929 mouse fibroblasts = assay: Toxicity assay (MTT, confluent layer); type: cell-based; conditions: L929; after 18 h
Experimental: L-929 mouse fibroblasts from DSMZ cultivated at 37° C. and […] in DME medium (high glucose) supplemented with 10% fetal calf serum. Cell culture reagents came from Life Technologies Inc. (GIBCO BRL). […] of sus-pended cells (100,000/mL) were seeded into wells of 96-well plate. After 4 days when the cells had formed a confluent layer, […] of serial dilutions of the test compound were added to the cells. After 18 hours of incubation metabolic activity of the cells was determined using an MTT assay (Mosman et al., 1983).

spFoID = biological target: T1, spFoID (Streptococcus pneumoniae serotype 4, UniProt Q97RI9); assay: FoID cyclohydrolase (CYH) enzyme assay; type: biochemical, S. pneumoniae
T1 construct: made in house; host or cells: E. coli BL21 (DE3)
Experimental: (6R,S)-5,10-Methylene-5,6,7,8-tetrahydrofolic acid ((6R,S)-5,10-CH2-THF), calcium salt and (6R,S)-5,10-Methenyl-5,6,7,8-tetrahydrofolic acid ((6R,S)-5,10-CH=THF) chloride were purchased from Schircks Laboratories (Bauma, Switzerland) and were used as substrates for FoID dehydrogenase and cyclohydrolase enzyme assays, respectively. Only the R-isomer, which accounts for 50% of (6R,S)-5,10-CH2-THF and (6R,S)-5,10-CH=THF, respectively, is used by the enzyme. (6R,S)-5,10-CH2-THF was dissolved in N2-spargeled basic buffer (50 mM Tris-HCl (pH 8.0), 100 mM β-mercaptoethanol) as described by Sah and Varshney, 2015a (6R,S)-5,10-CH=THF was first dissolved in DMSO as a 100 mM stock solution.
Because FoID is a bifunctional enzyme, dehydrogenase and cyclohydrolase activities were determined for FoID enzyme kinetics, respectively. The dehydrogenase activity of FoID was assayed for its substrate 5,10-CH2-THF and cofactor NADP+ (in the case of MTHFD2, NAD+ was used as cofactor) based on monitoring the formation of 5,10-CH=THF while the cyclohydrolase activity of FoID was determined for its substrate 5,10-CH=THF by monitoring the hydrolysis of 5,10-CH2-THF. The enzyme kinetics for the dehydrogenase activity of all FoIDs except hsMTHFD1_DC were determined at 30° C. in 50 mM Tris-HCl (pH 7.5), 30 mM β-mercaptoethanol. The hsMTHFD1_DC dehydrogenase activity was measured in 25 mM MOPS (pH 7.3), 30 mM β-mercaptoethanol at 30° C. […] To monitor the formation of 5,10-CH=THF, the absorbance of the reaction mixture was monitored at 350 nm in micro UV cuvettes (BRAND, Essex, Connecticut, USA). The concentration of 5,10-CH=THF produced in the reaction was determined using an extinction co-efficient of 0.0249 μM-1 cm-1. […] The consumption of 5,10-CH=THF was measured by recording the absorbance of the reactions at 355 nm using the TECAN Infinite 200 PRO equipped with a monochromator. […] The inhibition constants (Ki) of carolacton on FoID were determined by measuring the apparent Km values when adding certain amounts of carolacton to the enzyme reactions. […]

ecFoID Q98H = biological target: T2, ecFoID Q98H (Escherichia coli, UniProt P24186, Q98H); assay: Surface plasmon resonance assay; type: binding, E. coli
T2 construct: made in house; host or cells: E. coli BL21 (DE3)
Experimental: All surface plasmon resonance (SPR) experiments described in this study were performed on a Biacore X100 system. Different FoIDs with or without His-tag were coupled on CM5 sensor chips (GE Healthcare) by the amine coupling method using a kit from GE Healthcare Life Sciences (Freiburg, Germany). A pH scouting process was performed before protein immobilization to test the most appropriate buffer and the protein concentration for protein coupling. Finally, 20 μg/mL of ecFoID in 10 mM maleate buffer (pH 6.8), 30 μg/mL of ecFoID Q98H in 10 mM maleate buffer (pH 6.3), 40 μg/mL of ecFoID K54N in 10 mM maleate buffer (pH 5.8), 20 μg/mL of spFoID in 10 mM maleate buffer (pH 6.0) and 15 μg/mL of MTHFD2 (His-tag cleaved) in 10 mM maleate buffer (pH 6.8) were used for coupling. In the protein immobilization procedure, the contact time was calculated based on the pH scouting results to achieve -3000-5000 relative resonance units (RU). The buffer used in the SPR assays was 1×HBS-P buffer (10 mM HEPES pH 7.4, 150 mM NaCl, 0.05% Tween 20). The 1 mM stock solution of carolacton was prepared in 1×HBS-P buffer and diluted to different concentration ranges by two-fold serial dilution. In the SPR assay, the association time was 180 s and the dissociation time was 600 s. Data analysis was performed using the Biacore evaluation software. The SPR curves were exported to be re-plotted in OriginPro 2016 (OriginLab, Northampton, Mass., US).

T1 sequence (Q97RI9 whole entry): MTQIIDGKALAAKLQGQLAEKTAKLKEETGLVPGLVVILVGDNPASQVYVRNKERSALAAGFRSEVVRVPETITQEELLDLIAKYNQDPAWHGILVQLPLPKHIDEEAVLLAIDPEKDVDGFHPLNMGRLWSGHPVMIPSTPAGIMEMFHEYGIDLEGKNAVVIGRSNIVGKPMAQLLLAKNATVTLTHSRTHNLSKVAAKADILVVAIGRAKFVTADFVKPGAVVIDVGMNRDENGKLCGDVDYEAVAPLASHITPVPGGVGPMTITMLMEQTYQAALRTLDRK

Which results are given for `CO[C@H](CC(=O)O)[C@@H](C)C(=O)[C@H](C)/C=C(\C)[C@H]1OC(=O)[C@H](O)[C@H](O)/C=C/[C@H](C)CCC[C@@H]1C` [Carolacton, carolacton]?
acute toxicity (L-929 mouse fibroblasts): no acute toxicity; IC50 (spFoID; 5 nM enzyme, read-out: IC50, carolacton inhibition on CYH activity): 38.1 nM; IC80 (spFoID; 5 nM enzyme, read-out: IC80, carolacton inhibition on CYH activity): 101 nM; Ki (spFoID; vs 5,10-CH=THF, read-out: Ki (5,10-CH═THF), carolacton inhibition on CYH activity): 38.1 nM; Kd (ecFoID Q98H): 20000 nM; binding (SPR), in words (ecFoID Q98H; ecFoID Q98H): weak binding
